Laboratory results from patent US4732890A, “Retro-inverso hexapeptide neurotensin analogs, process for their preparation and pharmaceutical compositions containing them” (Eniricerche S.p.A., priority 1985, dated 1988).

How the values were obtained:
male rats = assay: Blood pressure after i.v. injection in urethane-anesthetized male rats; format: in vivo, rat; details: 20 meq/Kg; for Arterial pressure: i.v. right femoral vein, basal 80-130 mmHg; for Pressure Δ: i.v., versus basal 80-130 mmHg
Experimental: Typically, male rats weighing about 200-300 g, anesthetized with urethane (1.75 g/Kg i.p.), were employed in these tests and the hexapeptide [drawing 9] was administered by i.v. injection in the right femoral vein at a dosage of 20 meq/Kg body weight.
Blood pressure was recorded at different times following the injection.
The basal values were on the average 80-130 mmHg.

[1] = cited from earlier work

Row | Substance | Arterial pressure (male rats; 30' from admin.) | Pressure Δ (male rats; 30' from admin.) | Arterial pressure (male rats; 1 h from admin.) | Pressure Δ (male rats; 1 h from admin.) | Arterial pressure (male rats; 2 h from admin.) | Pressure Δ (male rats; 2 h from admin.) | Arterial pressure (male rats; 2.5 h from admin.) | Pressure Δ (male rats; 2.5 h from admin.) | Arterial pressure (male rats; 3.5 h from admin.) | Pressure Δ (male rats; 3.5 h from admin.) | Arterial pressure (male rats; 4.5 h from admin.) | Pressure Δ (male rats; 4.5 h from admin.) | Arterial pressure (male rats; 5 h from admin.) | Pressure Δ (male rats; 5 h from admin.) | Arterial pressure (male rats; 6 h from admin.) | Pressure Δ (male rats; 6 h from admin.) | in vivo biological activity relative to NT [1]
1 | Arginyl-arginyl-prolyl-tyrosyl-gem diamino-isoleucyl-(R,S)malonyl-leucine [Example 1] | 80-125 mmHg | 0-5 | 75-125 mmHg | 5-5 | 75-125 mmHg | 5-5 | 75-120 mmHg | 5-10 | 75-120 mmHg | 5-10 | 70-110 mmHg | 10-20 | 70-110 mmHg | 10-20 | 65-105 mmHg | 15-25 | –
2 | Arg-Arg-Pro-Tyr-Ile-Leu (RRPYIL; printed: Arg-Arg-Pro-Tyr-Ile-Leu) [C-terminal hexapeptide, C-terminal hexapeptide fragment of NT] | – | – | – | – | – | – | – | – | – | – | – | – | – | – | – | – | much lower than NT itself
